Experiments:
[1] = target: Cyclin-dependent kinase 4 (Homo sapiens, UniProt P11802); assay: Inhibition of CDK4
[2] = target: Receptor tyrosine-protein kinase erbB-2 (Homo sapiens, UniProt P04626); assay: Inhibition of c-erbB-2
Receptor tyrosine-protein kinase erbB-2, sequence (P04626 whole entry): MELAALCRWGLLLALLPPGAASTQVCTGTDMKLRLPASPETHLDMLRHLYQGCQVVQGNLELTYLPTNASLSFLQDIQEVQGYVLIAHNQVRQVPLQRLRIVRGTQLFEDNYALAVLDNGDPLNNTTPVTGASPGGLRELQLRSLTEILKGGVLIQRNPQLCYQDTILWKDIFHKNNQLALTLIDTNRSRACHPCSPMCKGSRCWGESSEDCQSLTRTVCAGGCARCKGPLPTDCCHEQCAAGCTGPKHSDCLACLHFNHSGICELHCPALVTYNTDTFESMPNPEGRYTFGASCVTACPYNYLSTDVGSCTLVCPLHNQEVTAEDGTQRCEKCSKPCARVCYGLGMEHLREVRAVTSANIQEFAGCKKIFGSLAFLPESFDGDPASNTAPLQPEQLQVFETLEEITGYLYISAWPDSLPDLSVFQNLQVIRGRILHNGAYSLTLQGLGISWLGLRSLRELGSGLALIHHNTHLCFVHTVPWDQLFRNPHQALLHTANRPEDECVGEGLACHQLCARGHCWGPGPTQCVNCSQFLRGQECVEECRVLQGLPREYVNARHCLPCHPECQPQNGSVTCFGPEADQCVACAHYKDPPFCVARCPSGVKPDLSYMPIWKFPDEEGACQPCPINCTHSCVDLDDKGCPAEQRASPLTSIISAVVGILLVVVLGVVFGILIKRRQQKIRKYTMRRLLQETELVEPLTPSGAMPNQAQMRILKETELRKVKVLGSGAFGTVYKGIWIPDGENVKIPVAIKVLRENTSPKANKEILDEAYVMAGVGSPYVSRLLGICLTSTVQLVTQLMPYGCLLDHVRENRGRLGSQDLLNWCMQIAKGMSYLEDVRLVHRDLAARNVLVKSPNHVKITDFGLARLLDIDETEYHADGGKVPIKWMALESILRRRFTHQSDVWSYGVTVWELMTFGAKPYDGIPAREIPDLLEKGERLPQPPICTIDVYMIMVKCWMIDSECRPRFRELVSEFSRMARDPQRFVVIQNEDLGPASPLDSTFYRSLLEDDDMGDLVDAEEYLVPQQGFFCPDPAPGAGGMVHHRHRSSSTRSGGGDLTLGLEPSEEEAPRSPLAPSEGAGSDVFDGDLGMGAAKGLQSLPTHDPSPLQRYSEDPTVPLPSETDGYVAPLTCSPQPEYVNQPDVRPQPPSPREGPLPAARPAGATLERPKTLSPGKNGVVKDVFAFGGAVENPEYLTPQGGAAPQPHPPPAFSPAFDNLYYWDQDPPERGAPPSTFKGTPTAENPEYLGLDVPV

Cyclin-dependent kinase 4, sequence (P11802 whole entry): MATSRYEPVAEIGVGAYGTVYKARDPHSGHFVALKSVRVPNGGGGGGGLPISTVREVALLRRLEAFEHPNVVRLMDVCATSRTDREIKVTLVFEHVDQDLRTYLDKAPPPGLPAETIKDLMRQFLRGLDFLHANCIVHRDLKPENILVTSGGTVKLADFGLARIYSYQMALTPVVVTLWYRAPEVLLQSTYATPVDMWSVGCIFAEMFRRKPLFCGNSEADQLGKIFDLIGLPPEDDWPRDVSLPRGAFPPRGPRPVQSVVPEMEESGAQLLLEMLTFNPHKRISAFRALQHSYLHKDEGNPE

IC50 [1] | IC50 [2] | Compound
> 203 µM | > 203 µM | O=C1NC(=O)/C(=C2\CCNC(=O)c3[nH]ccc32)N1 [SPONGIACIDIN C]
> 154 µM | > 154 µM | O=C1NC(=O)/C(=C2\CCNC(=O)c3[nH]c(Br)cc32)N1 [SPONGIACIDIN D]

From ChEMBL document CHEMBL1150895, “Spongiacidins A-D, new bromopyrrole alkaloids from hymeniacidon sponge” (J Nat Prod, 1998)
